Experiments:
[1] = tested on: Lew specific CTL precursors in splenocytes; assay: Limiting dilution assay for CTL precursors in splenocytes after in vivo peptide; set-up: species or system rat; conditions: for [CTL precursor frequency]^−1: PVG rats, single iv 2 mg, Lew stimulators
Description: The effect of peptides on CTL precursor frequencies in splenocytes was tested as follows. Limiting dilution analysis was carried out essentially as described (Moeller et al. 1993, supra; Skinner and Marbrook. J. Exp. Med. (1976) 143:1562). Briefly, spleens were removed from naive animals or from animals that had received an allograft a minimum of 60 days earlier and then teased into a single cell suspension. Responder cells were plated from 1000 to 40,000 cells per well (24 replicates per concentration) into round bottom microliter wells in RPMI 1640 supplemented with 10% fetal bovine serum (Hyclone, Logan, Utah), 2 mM L-glutamine, 5×10^−5M β-mercaptoethanol, 100 U/ml penicillin, 100 μg/ml streptomycin, 20% supernatant from Concanavalin A activated rat spleen cells, and 50 μM α-methyl mannoside. Then, 5×10^5 irradiated (2000 rads) stimulator cells were added to each well and plates were incubated in a humidified CO2 incubator. After 5 days, aliquots were removed and tested for lysis of ^51Cr-labeled Concanavalin A activated blasts. Aliquots of supernatant were counted in a gamma counter and CTL precursor frequency determined by linear regression (Skinner and Marbrook. 1976, supra). Wells were considered positive if specific release was >10%.
PVG (RT1^c) or ACI […] rats were treated with a single intravenous injection of saline or 2 mg of A2.75-84, B7.75-84, B2702.75-84, or RT1^a.75-84 peptide. Their spleens were removed on different days after peptide treatment, cultured under limiting dilution conditions for 5 days with irradiated (2000R) splenocytes from Lewis rats; i.e., Lew (RT1^1) stimulator cells, and assayed for lysis of ^51Cr-labeled Lew blasts. CTL precursor frequency was determined by linear regression analysis.

cardiac allograft = assay: Heterotopic cardiac allograft survival, Lew donor to ACI recipient; assay type: in vivo, rat; conditions: peptide in two weeks before or 4 days after surgery plus CsA on days 0–4
Excerpt: Vascularized cardiac allografts were heterotypically transplanted into the abdomen of recipient rats using a modification of the technique of Ono and Lindsay (Ono and Lindsey J. Thorac. Cardiovasc. Surg. (1969) 57:225). Abdominal allografts were palpated on a daily basis to assess graft function, and rejection was deemed complete when palpable ventricular contractions ceased.
Cyclosporin A (CsA, Sandoz Pharmaceuticals Corporation, Base, Switzerland) dissolved in olive oil was given orally through a gavage tube at the indicated dose. Peptides were dissolved in water or saline and given intravenously or by gavage as indicated.
Since the B7.75-84 and B2702.75-84 peptides blocked cellular immunity in vivo, we examined their effects on allograft survival in rats. ACI (RT1^a) recipients were given abdominal heterotopic heart allografts from Lew donors (Moeller et al. 1993, supra; Ono and Lindsey. 1969, supra). Graft function was monitored by daily abdominal palpation, and rejection was scored as complete when the palpable ventricular contractions ceased.

purified T cells = assay: Proliferation assay: purified T cells stimulated by immobilized anti-CD3, 3H-thymidine incorporation; assay type: cell-based, human
Description: Cells and Cell Culture. PBL were isolated from normal donors by centrifugation over Ficoll-Hypaque. In some cases, T cells were purified from this preparation using the method of Secrist et al. [J. Exp. Med. (1993) 178:2123]. Briefly, cells isolated over Ficoll-Hypaque were incubated for 1 hour in Petri dishes. Nonadherent cells were passed over a nylon wool column and the resulting population was >90% CD3+ by FACS analysis. CD8+CTL lines specific for HLA-A2, B7, B27, B48, or Cw4 were generated and maintained in long-term culture as previously described [Buxton et al., J. Exp. Med. (1992) 175:809; Wesley et al., Hum. Immunol. (1993) 36:149]. Jurkat E6-1 and the T cell receptor negative Jurkat, JRT3-T3.5, were obtained from the American Type Culture Collection (ATCC; Rockville, Md.). Other cell lines used included the EBV transformed B cell lines JY, MS, C1R, and 721.221; K562 and HEL, erythroleukemia cell lines; the T cell tumors Peer, Hut-78 and HSB; the Burkitt's lymphoma cell lines Daudi and SUP B17 [Wright et al., J. Exp. Med. (1989) 169:1557], and the NK-like cell line YT2C2. […]
Proliferation Assay. […] Plates were harvested on a PHD Cell Harvester 24 hours later and [^3H]-thymidine incorporation determined by scintillation counting.
Peptides were evaluated for effects on the proliferation of purified T cells stimulated by immobilized anti-CD3 antibody. […]

RENLRIALRY [B2702.75–84]
[CTL precursor frequency]^−1 ([1]; 0 days after peptide injection): 54,631 | [CTL precursor frequency]^−1 ([1]; 1 day after peptide injection): 54,631 | [CTL precursor frequency]^−1 ([1]; 7 days after peptide injection): 465,572 | [CTL precursor frequency]^−1 ([1]; 10 days after peptide injection): 468,071 | precursor frequency of Lew specific cells in splenocytes ([1]; treated on the day of splenectomy or 24 hours earlier, compared with approximately 1 in 55,000): The same frequency | rejection of transplants with peptide plus CsA (cardiac allograft): rejected similarly to allografts in animals treated with CsA alone | inhibition of proliferation of purified T cells stimulated by immobilized anti-CD3 antibody (purified T cells): do not
